Earlier results in patent publication US20250257354A1, “METHODS AND COMPOSITIONS RELATED TO TRNA THERAPEUTICS FOR TREATING VISION LOSS” (UNIVERSITY OF IOWA RESEARCH FOUNDATION, priority 2022, published 2025).

Conditions: ACT DMD Phase 3 NCT01826487; ACT CF NCT02139306

For `O=C(O)c1cccc(-c2noc(-c3ccccc3F)n2)c1` [Ataluren], which “efficacy in patient populations” value is on record?
The value was “unexpectedly low efficacy”.
